Each structure is given as a SMILES string.

The target in assay [1] is T1, Cbl-b (Homo sapiens, UniProt Q13191). Nature of the assay: Cbl-b inhibition assay (Cbl-b activity assay, FRET, Biological Example 1; 100 mM NaCl, 60 nM Src kinase). As to conditions: upper bound stated in text lists; read-out: IC50 values in the Cbl-b inhibition assay of Biological Example 1. It counts as biochemical. In outline: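 TR-FRET assay using N-terminal biotinylated Avi-tagged Cbl-b bound to streptavidin-terbium, Src kinase for Cbl-b phosphorylation, and UbcH5B irreversibly conjugated to Bodipy-Fluorescein-ubiquitin. Phosphorylated Cbl-b binds UbcH5B-Ub, bringing the fluorophores together; inhibition is read as loss of FRET signal.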

In assay [2] the test system is T-cell. In words: IL-2 secretion from T-cells co-stimulated with anti-CD3 and anti-CD28 antibody (Biological Example 2). Type of assay: cell-based, human. The note with it: Homo sapiens, T-cell, primary human total T-cells, baseline = anti-CD3/anti-CD28 stimulated cells without inhibitor, read-out: IL-2 secretion, Anti-CD3/Anti-CD28 stimulation, fold change over baseline; for fold induction at 0.3 µM: 0.3 μM compound; for fold induction at 1 µM: 1 μM compound. In outline:
(§1)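 No assay protocol given; T-cells stimulated with anti-CD3 alone or anti-CD3 plus anti-CD28, with or without Cbl-b inhibitor. Activation read as IL-2 secretion or CD25 surface staining, expressed as fold over baseline from uninhibited cells […].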

The subject of assay [3] is T-cell. Nature of the assay: CD25 cell surface staining on T-cells co-stimulated with anti-CD3 and anti-CD28 antibody (Biological Example 2). The note with it: Homo sapiens, T-cell, primary human total T-cells, baseline = anti-CD3/anti-CD28 stimulated cells without inhibitor, read-out: CD25 staining, Anti-CD3/Anti-CD28 stimulation, fold change over baseline; for fold induction at 0.3 µM: 0.3 μM compound; for fold induction at 1 µM: 1 μM compound. Type of assay: cell-based, human. The essentials:
as §1

In assay [4] the target is T1, Cbl-b. In words: Cbl-b activity assay (Cbl-b inhibition assay), TR-FRET of Cbl-b interaction with UbcH5B-Ub. Type of assay: biochemical. The note with it: assay buffer with 100 mM NaCl, 60 nM Src kinase; read-out: Cbl-b activity IC50. The essentials: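 TR-FRET readout of Cbl-b binding to Bodipy-fluorescein N-terminally labeled Ub conjugated to UbcH5B C85K, measured with compound present. After compound incubation, 60 nM Src kinase with 1 mM ATP and 5 mM MgCl2 (final) was added for 1.5 h, then a further 1 h incubation; asterisked values used 50 mM NaCl buffer and 30 nM Src.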

Assay [5] has as its system T-cell. In words: IL-2 secretion from T-cells stimulated with anti-CD3 antibody alone (Biological Example 2). As to conditions: 1 μM compound, primary human total T-cells, read-out: IL-2 secretion, Anti-CD3 stimulation, fold change over baseline. Type of assay: cell-based.
For assay [6], the system named is T-cell. In words: CD25 cell surface staining on T-cells stimulated with anti-CD3 antibody alone (Biological Example 2). It counts as cell-based. As to conditions: 1 μM compound, primary human total T-cells, baseline = anti-CD3/anti-CD28 stimulated cells without inhibitor, read-out: CD25 staining, Anti-CD3 stimulation, fold change over baseline.

T1 sequence (Q13191 36-427): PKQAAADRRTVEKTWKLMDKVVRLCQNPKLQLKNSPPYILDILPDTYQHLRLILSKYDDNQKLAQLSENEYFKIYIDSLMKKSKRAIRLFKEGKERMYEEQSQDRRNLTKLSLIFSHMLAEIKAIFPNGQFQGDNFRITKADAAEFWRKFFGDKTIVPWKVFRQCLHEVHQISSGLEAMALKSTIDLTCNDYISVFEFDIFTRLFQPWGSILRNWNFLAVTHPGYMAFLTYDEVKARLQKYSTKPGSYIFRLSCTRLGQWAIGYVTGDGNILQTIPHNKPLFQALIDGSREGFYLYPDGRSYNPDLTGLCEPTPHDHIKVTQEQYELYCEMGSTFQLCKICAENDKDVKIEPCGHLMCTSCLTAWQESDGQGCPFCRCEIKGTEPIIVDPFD

As to `Cc1cc(C(=O)Nc2cccc(C3(Cc4nocc4C)COC3)c2)nc(C2CC2)n1` [Compound 509, 2-cyclopropyl-6-methyl-N-(3-{3-[(4-methyl-1,2-oxazol-3-yl)methyl]oxetan-3-yl}phenyl)pyrimidine-4-carboxamide], the results for the IC50 on Cbl-b [1] and at Cbl-b [4] were not above 100 nM and less than 100 nM, respectively. Besides, the fold induction at 0.3 µM in the assay on T-cell [2] is more than 7.5; in the assay with T-cell [3], 1.31 to 1.5. The fold induction at 1 µM was more than 7.5 in the assay with T-cell [2], 1.31 to 1.5 with T-cell [3], more than 0.201 with T-cell [5] and more than 1 in the assay on T-cell [6].
As for `Cc1cc(C(=O)Nc2cccc(C(C)(C)Cc3nncn3C)c2)nc(C2CC2)n1` [Compound 511, 2-cyclopropyl-6-methyl-N-{3-[2-methyl-1-(4-methyl-1,2,4-triazol-3-yl)propan-2-yl]phenyl}pyrimidine-4-carboxamide], the IC50 was not above 100 nM on Cbl-b [1] and less than 100 nM on Cbl-b [4]. The fold induction at 0.3 µM in the assay on T-cell [2] was 5 to 7.5; in the assay on T-cell [3], 1.31 to 1.5. Also, the fold induction at 1 µM in the assay on T-cell [2] is more than 7.5; in the assay on T-cell [3] it was 1.31 to 1.5; in the assay on T-cell [5], 0.101 to 0.15; in the assay on T-cell [6] it was 0.801 to 1.
Consider `Cn1cnnc1C(F)(F)[C@](C)(F)c1cccc(NC(=O)c2cc(CN3CC[C@H](F)C3)nc(C3CC3)n2)c1` [Compound 512, 2-cyclopropyl-6-{[(3S)-3-fluoropyrrolidin-1-yl]methyl}-N-{3-[(2R)-1,1,2-trifluoro-1-(4-methyl-1,2,4-triazol-3-yl)propan-2-yl]phenyl}pyrimidine-4-carboxamide], for which the values for the IC50 on Cbl-b [1] and on Cbl-b [4] were not above 100 nM and less than 100 nM, respectively. The values for the fold induction at 0.3 µM in the assay on T-cell [2] and in the assay on T-cell [3] were 2.51 to 5 and 1.01 to 1.3, respectively. The fold induction at 1 µM lay in the range of 5 to 7.5 with T-cell [2], 1.01 to 1.3 with T-cell [3], 0.051 to 0.1 in the assay on T-cell [5] and 0.801 to 1 with T-cell [6].
Consider `Cn1cnnc1CC1(c2cccc(N3Cc4c(cc(OC5CC5)cc4C(F)(F)F)C3=O)c2)COC1` [Compound 513, 6-cyclopropoxy-2-(3-{3-[(4-methyl-1,2,4-triazol-3-yl)methyl]oxetan-3-yl}-phenyl)-4-(trifluoromethyl)-3H-isoindol-1-one], for which the IC50 was not above 100 nM on Cbl-b [1] and less than 100 nM at Cbl-b [4]. Moreover, the fold induction at 0.3 µM with T-cell [2] is 1.01 to 2.5; in the assay with T-cell [3], 1.01 to 1.3. Besides, the fold induction at 1 µM in the assay on T-cell [2] was 2.51 to 5; with T-cell [3] it was 1.01 to 1.3; with T-cell [5] it was 0.151 to 0.2; with T-cell [6] it was more than 1.
As to `Cn1cnnc1CC1(c2cccc(N3Cc4c(cc(OC5CNC5)cc4C(F)(F)F)C3=O)c2)COC1` [Compound 514, 6-(azetidin-3-yloxy)-2-(3-{3-[(4-methyl-1,2,4-triazol-3-yl)methyl]oxetan-3-yl}phenyl)-4-(trifluoromethyl)-3H-isoindol-1-one], the IC50 on Cbl-b [1] was not above 100 nM; at Cbl-b [4], less than 100 nM. For the same molecule, the fold induction at 0.3 µM with T-cell [2] lay in the range of 1.01 to 2.5; in the assay on T-cell [3], 1.01 to 1.3. Also, the fold induction at 1 µM in the assay with T-cell [2] was in the range of 1.01 to 2.5; in the assay with T-cell [3] it was 1.01 to 1.3; with T-cell [5], 0.051 to 0.1; with T-cell [6], 0.801 to 1.
Regarding `Cc1cc(C(=O)Nc2cccc(-c3c(-c4nncn4C)cnn3C)c2)nc(C2CC2)n1` [Compound 522, 2-cyclopropyl-6-methyl-N-(3-(l-methyl-4-(4-methyl-4H-1,2,4-triazol-3-yl)-1H-pyrazol-5-yl)phenyl)pyrimidine-4-carboxamide], the figures for the 50% inhibitory concentration (IC50) at Cbl-b [1] and at Cbl-b [4] were not above 300 nM and 100 to 300 nM, respectively. For the same molecule, the fold induction at 0.3 µM in the assay with T-cell [2] was 1.01 to 2.5; with T-cell [3], 1.01 to 1.3. Besides, the fold induction at 1 µM was 1.01 to 2.5 in the assay on T-cell [2], 1.01 to 1.3 with T-cell [3], 0.101 to 0.15 in the assay with T-cell [5] and 0.601 to 0.8 in the assay on T-cell [6].
`Cn1cnnc1-c1cnn(C)c1-c1cccc(N2Cc3c(cccc3C(F)(F)F)C2=O)c1` [Compound 523, 2-(3-(l-methyl-4-(4-methyl-4H-1,2,4-triazol-3-yl)-1H-pyrazol-5-yl)phenyl)-4-(trifluoromethyl)isoindolin-1-one]: the 50% inhibitory concentration (IC50) at Cbl-b [1] was not above 300 nM; at Cbl-b [4] it was 100 to 300 nM. Moreover, the fold induction at 0.3 µM with T-cell [2] was 1.01 to 2.5; with T-cell [3], 1.01 to 1.3. In addition, the fold induction at 1 µM with T-cell [2] is 1.01 to 2.5; with T-cell [3], 1.01 to 1.3; with T-cell [5], 0.051 to 0.1; in the assay with T-cell [6], 0.601 to 0.8.
Take `Cc1cc(C(=O)Nc2cccc(C3(Cc4nncn4C)CC(F)(F)C3)c2)nc(C2CC2)n1` [Compound 526, 2-cyclopropyl-N-(3-(3,3-difluoro-1-((4-methyl-4H-1,2,4-triazol-3-yl)methyl)cyclobutyl)phenyl)-6-methylpyrimidine-4-carboxamide]: the IC50 on Cbl-b [1] was not above 100 nM; at Cbl-b [4], less than 100 nM. Besides, the fold induction at 0.3 µM was 5 to 7.5 in the assay with T-cell [2] and 1.01 to 1.3 in the assay with T-cell [3]. The fold induction at 1 µM in the assay on T-cell [2] is more than 7.5; in the assay on T-cell [3] it was 1.01 to 1.3; in the assay on T-cell [5] it was more than 0.201; with T-cell [6], more than 1.
For `Cn1cnnc1CC1(c2cccc(N3Cc4c(cccc4C(F)(F)F)C3=O)c2)CC(F)(F)C1` [Compound 527, 2-(3-(3,3-difluoro-1-((4-methyl-4H-1,2,4-triazol-3-yl)methyl)cyclobutyl)-phenyl)-4-(trifluoromethyl)isoindolin-1-one], the IC50 on Cbl-b [1] is not above 100 nM; at Cbl-b [4], less than 100 nM. Further, the fold induction at 0.3 µM in the assay with T-cell [2] is 2.51 to 5; with T-cell [3], 1.01 to 1.3. For the same molecule, the fold induction at 1 µM in the assay on T-cell [2] is 5 to 7.5; with T-cell [3], 1.01 to 1.3; with T-cell [5], more than 0.201; in the assay on T-cell [6], more than 1.
As for `Cn1cnnc1CC1(c2cccc(N3Cc4c(cc(CN5CCCC(F)(F)CC5)cc4C(F)(F)F)C3=O)c2)COC1` [Compound 528, 6-((4,4-difluoroazepan-1-yl)methyl)-2-(3-(3-((4-methyl-4H-1,2,4-triazol-3-yl)methyl)oxetan-3-yl)phenyl)-4-(trifluoromethyl)isoindolin-1-one], the half-inhibitory concentration (IC50) at Cbl-b [1] was not above 100 nM; on Cbl-b [4], less than 100 nM. The fold induction at 0.3 µM in the assay with T-cell [2] was more than 7.5; with T-cell [3] it was 1.01 to 1.3. In addition, the fold induction at 1 µM in the assay on T-cell [2] is more than 7.5; in the assay on T-cell [3], 1.01 to 1.3; in the assay with T-cell [5], more than 0.201; with T-cell [6] it was more than 1.
As to `Cn1cnnc1CC1(c2cccc(N3Cc4c(cc(CC5CCCO5)cc4C(F)(F)F)C3=O)c2)COC1` (stereo not shown) [Compound 529, 2-(3-(3-((4-methyl-4H-1,2,4-triazol-3-yl)methyl)oxetan-3-yl)phenyl)-6-((THF-2-yl)methyl)-4-(trifluoromethyl)isoindolin-1-one], the figures for the IC50 on Cbl-b [1] and on Cbl-b [4] were not above 100 nM and less than 100 nM, respectively. The fold induction at 0.3 µM with T-cell [2] lay within 2.51 to 5; with T-cell [3], 1.01 to 1.3. In addition, the fold induction at 1 µM in the assay on T-cell [2] is more than 7.5; in the assay with T-cell [3], 1.01 to 1.3; in the assay with T-cell [5] it was 0.101 to 0.15; in the assay on T-cell [6], 0.801 to 1.

The values above are taken from patent US20220324835A1 (Nurix Therapeutics, Inc., priority 2018, published 2022).
